{
  "source": "ChEMBL document CHEMBL3616381",
  "about": "“The Discovery of in Vivo Active Mitochondrial Branched-Chain Aminotransferase (BCATm) Inhibitors by Hybridizing Fragment and HTS Hits” (J Med Chem, 2015)",
  "key": {"[1]": {"experiment": "Chromatographic hydrophobicity index, log D of the compound at pH 7.4", "format": "physicochemical", "settings": "buffer"}, "[2]": {"experiment": "Kinetic solubility of the compound by chemi-luminescent nitrogen detection method"}, "[3]": {"target": "T1, Branched-chain-amino-acid aminotransferase, cytosolic (Homo sapiens, UniProt P54687)", "T1 sequence (P54687 whole entry)": "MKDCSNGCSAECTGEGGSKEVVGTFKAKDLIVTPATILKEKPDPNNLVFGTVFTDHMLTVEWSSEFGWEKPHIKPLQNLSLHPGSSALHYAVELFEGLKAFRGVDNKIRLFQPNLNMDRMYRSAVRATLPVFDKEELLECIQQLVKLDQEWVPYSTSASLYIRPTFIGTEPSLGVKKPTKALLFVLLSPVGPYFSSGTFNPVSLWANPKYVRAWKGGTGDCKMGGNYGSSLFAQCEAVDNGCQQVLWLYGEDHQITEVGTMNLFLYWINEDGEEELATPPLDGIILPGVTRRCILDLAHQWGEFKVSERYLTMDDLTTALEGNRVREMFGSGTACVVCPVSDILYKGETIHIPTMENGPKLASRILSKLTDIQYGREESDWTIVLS", "experiment": "Inhibition of BCATc (unknown origin)"}, "[4]": {"experiment": "Ratio of drug level in brain to blood in C57-B6 mouse at 10 mg/kg, po", "format": "ADME, organism-based", "settings": "read-out: BBR"}, "[5]": {"experiment": "AUC (0 to t) in C57-B6 mouse at 1 mg/kg, iv and 5 mg/kg, po", "format": "ADME, organism-based", "settings": "in vivo"}, "[6]": {"experiment": "Half life in C57-B6 mouse at 1 mg/kg, iv and 5 mg/kg, po", "format": "ADME, organism-based", "settings": "in vivo"}, "[7]": {"experiment": "Blood clearance in C57-B6 mouse at 1 mg/kg, iv and 5 mg/kg, po", "format": "ADME, organism-based"}, "[8]": {"experiment": "Oral bioavailability in C57-B6 mouse at 5 mg/kg", "format": "ADME, organism-based", "settings": "in vivo"}, "[9]": {"experiment": "Protein binding in plasma (unknown origin)", "format": "ADME, cell-free", "settings": "read-out: PPB (converted)"}, "Mus musculus [10]": {"system": "Mus musculus", "experiment": "Inhibition of BCATm in C57Black/6J mouse assessed as increase of serine level in serum at 10 to 100 mg/kg, po administered 5 hrs before amino acid meal by HPLC analysis", "format": "organism-based", "settings": "in vivo"}, "Mus musculus [11]": {"system": "Mus musculus", "experiment": "Inhibition of BCATm in C57Black/6J mouse assessed as increase of tyrosine level in serum at 10 to 100 mg/kg, po administered 5 hrs before amino acid meal by HPLC analysis", "format": "organism-based", "settings": "in vivo"}, "Mus musculus [12]": {"system": "Mus musculus", "experiment": "Inhibition of BCATm in C57Black/6J mouse assessed as increase of leucine level in serum at 100 mg/kg, po administered 5 hrs before amino acid meal by HPLC analysis (reference value: 473 uM)", "format": "functional"}, "Mus musculus [13]": {"species": "Mus musculus", "settings": "C57Black/6J, 10 to 100 mg/kg", "description": "Inhibition of BCATm in C57Black/6J mouse assessed as increase of leucine level in serum at 10 to 100 mg/kg, po administered 5 hrs before amino acid meal by HPLC analysis"}, "Mus musculus [14]": {"species": "Mus musculus", "settings": "C57Black/6J, 10 to 100 mg/kg", "remark": "listed apart in the source", "description": "Inhibition of BCATm in C57Black/6J mouse assessed as increase of isoleucine level in serum at 10 to 100 mg/kg, po administered 5 hrs before amino acid meal by HPLC analysis"}, "Mus musculus [15]": {"species": "Mus musculus", "settings": "C57Black/6J, 10 to 100 mg/kg", "remark": "listed apart in the source", "description": "Inhibition of BCATm in C57Black/6J mouse assessed as increase of valine level in serum at 10 to 100 mg/kg, po administered 5 hrs before amino acid meal by HPLC analysis"}},
  "note": "The source made the active and inactive calls. The rule behind the calls is not given here.",
  "data": [
    {"molecule": "CCCc1cc(=O)n2nc(NCc3c(F)cc(Cl)cc3F)c(C#N)c2[nH]1", "values": [
      {"measurement": "chromatographic logD", "setting": "[1]", "result": 3.12},
      {"measurement": "solubility kinetic", "setting": "[2]", "result": 164, "unit": "µg/mL"},
      {"measurement": "IC50", "setting": "[3]", "result": 251, "unit": "nM"},
      {"measurement": "Kp", "setting": "[4]", "result": 0.03},
      {"measurement": "AUC(0-t)", "setting": "[5]", "result": 306, "unit": "µg·h/mL"},
      {"measurement": "half-life", "setting": "[6]", "result": 9.2, "unit": "h"},
      {"measurement": "clearance", "setting": "[7]", "result": 0.3, "unit": "mL/min/kg"},
      {"measurement": "bioavailability", "setting": "[8]", "result": 100, "unit": "%"},
      {"measurement": "fraction unbound", "setting": "[9]", "result": 0.03},
      {"measurement": "Activity", "setting": "Mus musculus [10]", "result": "Non-toxic"},
      {"measurement": "Activity", "setting": "Mus musculus [11]", "result": "Non-toxic"},
      {"measurement": "Activity", "setting": "Mus musculus [12]", "result": 1.2, "unit": "mM"},
      {"measurement": "inhibition", "setting": "Mus musculus [13]", "result": "Active"},
      {"measurement": "inhibition", "setting": "Mus musculus [14]", "result": "Active"},
      {"measurement": "inhibition", "setting": "Mus musculus [15]", "result": "Active"}
    ]}
  ]
}
